Consider 22 molecules from PMC10141620 (Viruses, 2023).

SMILES strings stand for the structures. Entries after “also recorded” stand apart in the source; their conditions may differ. Like-named read-outs stand apart in the source and are kept apart here.

Data set [1] deals with NL4-3ΔEnv-NanoLuc/SARS-CoV-1 pseudovirus. Put plainly: microbe, parasite or virus in culture. The format is cell-based. Conditions: Severe acute respiratory syndrome coronavirus.
Data set [2] is described as follows: in vitro. Conditions: human.
In data set [3] the test system is NL4-3ΔEnvLuc/A-MLV pseudovirus. Nature of the data set: microbe, parasite or virus in culture. It counts as cell-based, amphotropic murine leukemia virus (A-MLV). Conditions: 293T/ACE2, read-out: A-MLV IC50.
A short description of data set [4]: in vitro. Conditions: human. The source holds these as a separate data set.
The nature of data set [5]: in vitro. Conditions: human. The source holds these as a separate data set.
Data set [6] in a line: in vitro. Conditions: human. The source holds these as a separate data set.
Data set [7] deals with NL4-3ΔEnv-NanoLuc/SARS-CoV-2 (USA-WA1/2020) pseudovirus. Nature of the data set: organism not typed. The format is cell-based.
Data set [8] concerns NL4-3ΔEnv-NanoLuc/MERS-CoV pseudovirus. Nature of the data set: microbe, parasite or virus in culture. The format is cell-based. Conditions: Middle East respiratory syndrome-related coronavirus.
For data set [9], the system named is SARS-CoV-2 spike (Wuhan-Hu-1) mediated cell-to-cell fusion, Jurkat donor / 293T/ACE2 acceptor cells. Put plainly: microbe, parasite or virus in culture. It counts as cell-based. Conditions: for IC50: Severe acute respiratory syndrome coronavirus 2, 4 h, read-out: IC50, cell-to-cell fusion inhibition.
Data set [10] in a line: in vitro. Conditions: human. This is another data set of the same source.
Data set [11] is described as follows: in vitro. Conditions: human. The source holds these as a separate data set.
For data set [12], the system named is SARS-CoV-1 Urbani. Nature of the data set: microbe, parasite or virus in culture. It counts as cell-based. Conditions: Severe acute respiratory syndrome coronavirus, Calu-3, read-out: IC50, SARS-CoV-1 Urbani.
For data set [13], the system named is MERS-CoV, EMC/2012. Put plainly: microbe, parasite or virus in culture. The format is cell-based. Conditions: Middle East respiratory syndrome-related coronavirus, Calu-3, read-out: IC50, MERS-CoV.
Where [14] appears, read: 293T/ACE2, read-out: SARS-CoV-1 IC50.
Where [15] appears, read: A549-ACE2, read-out: SARS-CoV-1 IC50.
[16] abbreviates: Calu-3, read-out: SARS-CoV-1 IC50.
Setting [17] is: Calu-3, read-out: SARS-CoV-2 USA-WA1/2020 IC50.
[18] abbreviates: Pseudovirus, 293T/ACE2, read-out: IC50, range over both cell lines.
The mark [19] stands for this setting: Caco-2, read-out: MERS-CoV IC50.
The mark [20] stands for this setting: Calu-3, read-out: MERS-CoV IC50.

Consider `Cc1ccc2nc3s/c(=C/c4coc(-c5ccc(Cl)c(C(=O)O)c5)c4)c(=O)n3c2c1` [NBCoV35], for which the IC50 in data set [1] (setting [14]) is 380 ± 69 nM; in data set [1] (setting [15]) it was 363 ± 11 nM; in data set [1] (setting [16]) it was 1250 ± 45 nM; in data set [3], 1820 ± 25 nM; in data set [7] (setting [17]) it was 0.36 ± 0.035 µM; in data set [7] (Pseudovirus, 293T/ACE2), 0.198 ± 0.009 µM. Also, the IC50 in [7] (setting [18]) was 0.066 to 0.198 µM; in data set [7] (Pseudovirus, A549-ACE2), 0.126 ± 0.003 µM; in data set [8] (setting [19]), 472 ± 43 nM; in data set [8] (setting [20]) it was 1670 ± 225 nM; in data set [8] (MRC5, read-out: MERS-CoV IC50), 715 ± 43 nM; in data set [9] it was 2800 nM. Also, the CC50 was over 50 µM in data set [2]; over 50 µM in [4]; about 50 µM in data set [5]; over 50 µM in data set [6]; about 50 µM in data set [10]. Further, the “IC50, cell-to-cell fusion inhibition” value in data set [9] (4 h) is recorded as “the least active”.

On to `O=C(O)c1cc(-c2ccc(/C=c3\sc4nc(=O)c5c6c(sc5n4c3=O)CCCC6)o2)ccc1Cl` [NBCoV36], for which the IC50 in [1] (setting [14]) is 660 ± 30 nM; in [1] (setting [15]) it was 147 ± 19 nM; in data set [1] (setting [16]), 627 ± 58 nM; in data set [3], 3300 ± 100 nM; in data set [7] (setting [17]), 0.433 ± 0.049 µM; in [7] (Pseudovirus, 293T/ACE2) it was 0.33 ± 0.018 µM. In addition, the IC50 in data set [7] (Pseudovirus, A549-ACE2) was 0.227 ± 0.018 µM; in data set [8] (setting [19]) it was 428 ± 34 nM; in data set [8] (setting [20]), 589 ± 117 nM; in data set [8] (MRC5, read-out: MERS-CoV IC50), 837 ± 38 nM; in data set [9] it was 900 nM. The CC50 in data set [2] was over 50 µM; in data set [4], over 50 µM; in data set [5], 43 ± 0.9 µM; in data set [6], over 50 µM; in data set [10] it was over 50 µM.

With `COc1cc(/C=c2/sc3nc4ccccc4n3c2=O)cc(I)c1OCC(=O)O` [NBCoV72], the CC50 in data set [5] and in data set [10] was over 50 µM in each case. For the same molecule, the IC50 in data set [7] (Pseudovirus, 293T/ACE2) is over 10 µM; in [7] (Pseudovirus, A549-ACE2), over 10 µM.

Consider `COc1cc(/C=c2/sc3nc4ccccc4n3c2=O)ccc1OCc1nnn[nH]1` [NBCoV80], for which the CC50 in data set [5] and in [10] was over 50 µM throughout. For the same molecule, the IC50 in [7] (Pseudovirus, 293T/ACE2) is over 10 µM; in [7] (Pseudovirus, A549-ACE2) it was over 10 µM.

With `O=C(O)c1ccc(-c2ccc(/C=c3/sc4nc5ccccc5n4c3=O)o2)cc1` [NBCoV73], the CC50 in data set [5] and in data set [10] was over 50 µM in each case. Further, the IC50 in data set [7] (Pseudovirus, 293T/ACE2) was over 10 µM; in data set [7] (Pseudovirus, A549-ACE2), over 10 µM.

Consider `COc1cc(/C=c2/sc3nc4ccccc4n3c2=O)ccc1OCc1cccc(C(=O)O)c1` [NBCoV77], for which the CC50 in data set [5] and in data set [10] was over 50 µM each time. Also, the IC50 in data set [7] (Pseudovirus, 293T/ACE2) is over 10 µM; in [7] (Pseudovirus, A549-ACE2) it was over 10 µM.

As for `Cc1ccc(-c2ccc(/C=c3/sc4nc5ccccc5n4c3=O)o2)cc1Cl` [NBCoV79], the CC50 in data set [5] and in data set [10] was over 50 µM throughout. The IC50 in [7] (Pseudovirus, 293T/ACE2) was over 10 µM; in [7] (Pseudovirus, A549-ACE2), over 10 µM.

With `Cc1ccc2c(nc3s/c(=C/c4ccc(-c5ccc(C(=O)O)cc5)o4)c(=O)n32)c1C` [NBCoV69], the CC50 in [5] and in [10] was over 50 µM throughout. The IC50 in [7] (Pseudovirus, 293T/ACE2) stood at 2.55 ± 0.105 µM; in [7] (Pseudovirus, A549-ACE2) it was 3 ± 0.4 µM.

For `O=C(O)c1cc(C(=O)O)cc(-c2ccc(/C=c3/sc4nc5ccccc5n4c3=O)o2)c1` [NBCoV76], the CC50 in [5] and in [10] was over 50 µM each time. In addition, the IC50 in [7] (Pseudovirus, 293T/ACE2) is over 10 µM; in data set [7] (Pseudovirus, A549-ACE2), over 10 µM.

On to `O=C(O)c1ccc(Cl)c(-c2ccc(/C=c3/sc4nc5ccccc5n4c3=O)o2)c1` [NBCoV74], for which the CC50 in data set [5] and in data set [10] was over 50 µM each time. In addition, the IC50 in data set [7] (Pseudovirus, 293T/ACE2) was over 10 µM; in data set [7] (Pseudovirus, A549-ACE2), over 10 µM.

Turning to `O=c1/c(=C\c2ccc(-c3cccc(Cl)c3)o2)sc2nc3ccccc3n12` [NBCoV71], the IC50 in data set [7] (Pseudovirus, 293T/ACE2) was over 10 µM; in [7] (Pseudovirus, A549-ACE2), over 10 µM.

Consider `O=c1/c(=C/c2ccc(-c3ccccc3)o2)sc2nc3ccccc3n12` [NBCoV66], for which the CC50 in data set [5] and in data set [10] was over 50 µM each time. Besides, in data set [7], the “antiviral activity (in words)” value is reported as “no antiviral activity; also recorded: Inactive”. The IC50 was over 10 µM in [7] (Pseudovirus, 293T/ACE2) and over 10 µM in data set [7] (Pseudovirus, A549-ACE2).

On to `Cc1cc2nc3s/c(=C\c4ccc(-c5ccc6c(c5)COC6=O)o4)c(=O)n3c2cc1C` [NBCoV65], for which the CC50 in [5] and in [10] was over 50 µM in each case. The IC50 in [7] (Pseudovirus, 293T/ACE2) was over 10 µM; in data set [7] (Pseudovirus, A549-ACE2), over 10 µM.

On to `CCC(CC)COC(=O)[C@H](C)N[P@](=O)(OC[C@H]1O[C@@](C#N)(c2ccc3c(N)ncnn23)[C@H](O)[C@@H]1O)Oc1ccccc1` [Remdesivir, reference compound], for which, in [11], the CC50 was over 50 µM. For the same molecule, the IC50 in data set [12] worked out at 1080 nM; in data set [13], 17.8 µM.

As to `Cc1cc2nc3s/c(=C/c4ccc(-c5ccccc5C(=O)O)o4)c(=O)n3c2cc1C` [NBCoV81], the CC50 in data set [5] and in [10] was over 50 µM throughout. Moreover, the IC50 worked out at 0.387 ± 0.064 µM in data set [7] (Pseudovirus, 293T/ACE2) and 0.459 ± 0.023 µM in [7] (Pseudovirus, A549-ACE2).

`Cc1cc(C)c2nc3s/c(=C\c4ccc(-c5ccc(Cl)c(C(=O)O)c5)o4)c(=O)n3c2c1` [NBCoV37]: the IC50 in data set [1] (setting [14]) is 340 ± 34 nM; in [1] (setting [15]) it was 95 ± 1 nM; in data set [1] (setting [16]) it was 1000 ± 132 nM; in data set [3], 1510 ± 88 nM; in data set [7] (setting [17]), 0.368 ± 0.045 µM; in [7] (Pseudovirus, 293T/ACE2), 0.066 ± 0.002 µM. For the same molecule, the IC50 in data set [7] (setting [18]) is 0.066 to 0.198 µM; in [7] (Pseudovirus, A549-ACE2), 0.145 ± 0.012 µM; in data set [8] (setting [19]), 161 ± 53 nM; in [8] (setting [20]), 877 ± 50 nM; in [8] (MRC5, read-out: MERS-CoV IC50) it was 229 ± 20 nM; in data set [8] (read-out: MERS-CoV IC50, range over both cell lines) it was 161 to 229 nM. Besides, the IC50 in data set [9] turned out to be 1400 nM. The CC50 in data set [2] is 48 ± 2 µM; in data set [4] it was over 50 µM; in data set [5] it was 42.5 ± 2 µM; in [6], over 50 µM; in [10], about 50 µM.

Regarding `Cc1cc2nc3s/c(=C\c4ccc(-c5ccc(OC(F)(F)F)cc5)o4)c(=O)n3c2cc1C` [NBCoV82], the CC50 in data set [5] and in data set [10] was over 50 µM each time. Further, the IC50 in data set [7] (Pseudovirus, 293T/ACE2) was over 10 µM; in [7] (Pseudovirus, A549-ACE2) it was over 10 µM.

`O=C(O)c1cc(C(=O)O)cc(-c2ccc(C=c3sc4nc5ccccc5n4c3=O)o2)c1` [NBCoV62]: the CC50 in data set [5] and in data set [10] was over 50 µM in each case. Besides, the IC50 in [7] (Pseudovirus, 293T/ACE2) was over 10 µM; in data set [7] (Pseudovirus, A549-ACE2), over 10 µM.

In the case of `Cc1cc(C(=O)O)ccc1-c1ccc(/C=c2\sc3nc4ccccc4n3c2=O)o1` [NBCoV70], the CC50 in data set [5] and in [10] was over 50 µM in each case. Besides, the IC50 in data set [7] (Pseudovirus, 293T/ACE2) is 9.5 ± 1 µM; in [7] (Pseudovirus, A549-ACE2), over 10 µM.

With `O=C(O)c1ccc(-c2ccc(/C=c3/sc4nc5ccccc5n4c3=O)o2)cc1Cl` [NBCoV75], the CC50 in data set [5] and in data set [10] was over 50 µM in each case. Also, the IC50 in data set [7] (Pseudovirus, 293T/ACE2) was determined as 5.2 ± 0.6 µM; in [7] (Pseudovirus, A549-ACE2) it was 3.3 ± 0.7 µM.

With `Cc1ccc2c(nc3s/c(=C\c4ccc(-c5ccccc5C(=O)O)o4)c(=O)n32)c1C` [NBCoV68], the CC50 in data set [5] and in data set [10] was over 50 µM throughout. In addition, the IC50 in data set [7] (Pseudovirus, 293T/ACE2) came out at 3.9 ± 0.1 µM; in [7] (Pseudovirus, A549-ACE2) it was 2.3 ± 0.07 µM.

Take `Cc1cc2nc3s/c(=C/c4ccc(-c5ccc(Cl)cc5)o4)c(=O)n3c2cc1C` [NBCoV78]: the CC50 in [5] and in data set [10] was over 50 µM in each case. Moreover, the IC50 is over 10 µM in data set [7] (Pseudovirus, 293T/ACE2) and 8.1 ± 0.2 µM in data set [7] (Pseudovirus, A549-ACE2).
